Reference: ChEMBL document CHEMBL1201862, “PubChem BioAssay data set” (2004)
Active and inactive are the calls of the source.

Tests used:
SUMO E1/E2 = SUMO E1/E2 (Homo sapiens, UniProt P63279+Q9UBE0+Q9UBT2); assay: SAR analysis of SUMOylation using HTRF in an in-Vitro dose response assay. [Related pubchem assays (depositor defined):AID2006, AID2011, AID2018, AID2069, AID2658]; assay type: functional
[1] = inhibitors of firefly luciferase expression or activity, dose response, H4 neuroglioma cells, luminescence (AID 1990); assay type: functional, cell-based
BJ [2] = assay: cytotoxicity toward BJ-TERT fibroblasts, dose response, cell-based, RAS-independent, luminescence (AID 1933); assay type: functional; details: Homo sapiens
BJ [3] = assay: cells; assay type: functional, cell-based; details: Homo sapiens
BJ [4] = assay: cytotoxicity toward BJ-TERT-LT-ST fibroblasts, dose response, cell-based, RAS-independent, luminescence (AID 1935); assay type: functional; details: Homo sapiens;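 also: BJ fibroblasts immortalized with TERT plus LT and ST oncogenes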
[5] = cytotoxicity toward DRD oncogenic fibroblasts, dose response, cell-based, non-viral oncogenic, luminescence (AID 1934); assay type: functional; details: Homo sapiens
[6] = Luminescence Cell-Based Dose Response HTS to Identify Inhibitors of 5'UTR Stem-Loop Driven Prion Protein mRNA Translation in H4 Neuroglioblastoma Cells. [Related pubchem assays: 1827 (Project Summary), 1813 (Primary HTS)]; assay type: functional
[7] = insulin promoter down-regulators in MIN6 cells, imaging, high-content screening, mouse beta cells (AID 1628); assay type: functional
[8] = THP-1 cell cytotoxicity, dose response, cytotoxicity control for non-replicating M. tuberculosis project (AID 489025); assay type: functional
[9] = cytotoxicity in HEK-293T cells, dose response, cytotoxicity control for TCR NF-kB inhibitor project, luminescence, T-cell screen hits (AID 489026); assay type: functional, cell-based;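 also: cells exposed to compound about 14 hours before the viability readout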
[10] = inhibitors of SNCA 5'UTR-driven reporter translation, confirmation, H4 neuroglioma cells, luminescence (AID 1988); assay type: functional, cell-based
[11] = Vero E6 cell cytotoxicity, dose response, cytotoxicity control for non-replicating M. tuberculosis project, secondary assay (AID 492998); assay type: functional, VeroE6; details: Vero C1008
[12] = HepG2 cell cytotoxicity, dose response, cytotoxicity control for non-replicating M. tuberculosis project (AID 489018); assay type: functional; details: Mycobacterium tuberculosis
[13] = cytotoxicity in MIN6 insulinoma cells, dose response, cytotoxicity control, cell-based, mouse insulinoma (AID 2122); assay type: functional;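 also: confirmatory high-throughput counterscreen run to flag cytotoxic compounds; mouse MIN-6 beta cells carrying an insulin promoter eGFP reporter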
cells = assay type: functional
[14] = biological target: T1, Tyrosine-protein phosphatase non-receptor type 7 (Homo sapiens, UniProt P35236); assay type: functional
T1 sequence (P35236 whole entry): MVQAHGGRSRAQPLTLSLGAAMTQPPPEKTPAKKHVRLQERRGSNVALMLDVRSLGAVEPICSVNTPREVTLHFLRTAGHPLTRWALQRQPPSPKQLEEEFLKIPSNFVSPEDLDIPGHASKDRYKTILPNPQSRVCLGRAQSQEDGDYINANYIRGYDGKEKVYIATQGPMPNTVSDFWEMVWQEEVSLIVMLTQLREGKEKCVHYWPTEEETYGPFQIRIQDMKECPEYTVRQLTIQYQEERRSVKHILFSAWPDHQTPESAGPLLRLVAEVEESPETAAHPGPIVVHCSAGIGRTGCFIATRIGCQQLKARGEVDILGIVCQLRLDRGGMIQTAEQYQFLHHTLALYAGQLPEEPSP

[15] = biological target: T2, Tyrosine-protein phosphatase non-receptor type 22 (Homo sapiens, UniProt Q9Y2R2); assay type: functional
T2 sequence (Q9Y2R2 whole entry): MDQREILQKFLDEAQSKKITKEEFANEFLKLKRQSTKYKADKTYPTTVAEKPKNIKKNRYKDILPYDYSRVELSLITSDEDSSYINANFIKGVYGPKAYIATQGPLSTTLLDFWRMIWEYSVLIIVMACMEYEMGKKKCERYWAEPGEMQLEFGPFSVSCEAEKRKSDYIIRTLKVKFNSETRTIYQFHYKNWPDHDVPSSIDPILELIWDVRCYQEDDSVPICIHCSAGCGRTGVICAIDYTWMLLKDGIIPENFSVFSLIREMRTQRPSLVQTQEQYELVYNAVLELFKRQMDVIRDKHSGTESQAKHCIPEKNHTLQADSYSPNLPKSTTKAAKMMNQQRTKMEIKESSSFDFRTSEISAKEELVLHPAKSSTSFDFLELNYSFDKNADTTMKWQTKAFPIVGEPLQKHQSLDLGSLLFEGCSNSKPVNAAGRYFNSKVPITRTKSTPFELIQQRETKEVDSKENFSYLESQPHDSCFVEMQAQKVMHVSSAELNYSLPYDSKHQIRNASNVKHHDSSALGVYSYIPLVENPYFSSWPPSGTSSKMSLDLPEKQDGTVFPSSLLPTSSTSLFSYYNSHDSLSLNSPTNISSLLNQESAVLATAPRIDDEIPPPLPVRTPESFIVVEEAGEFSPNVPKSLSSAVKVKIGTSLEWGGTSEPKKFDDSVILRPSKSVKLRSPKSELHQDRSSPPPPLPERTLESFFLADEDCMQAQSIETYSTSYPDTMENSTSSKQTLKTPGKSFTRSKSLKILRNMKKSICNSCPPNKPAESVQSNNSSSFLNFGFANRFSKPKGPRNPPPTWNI

[16] = biological target: T2, Tyrosine-protein phosphatase non-receptor type 22; assay type: functional; remark: listed apart in the source
[17] = biological target: T3, Sphingosine 1-phosphate receptor 4 (Homo sapiens, UniProt O95977); assay: Fluorescence dose response cell-based high throughput screening assay for agonists of the Sphingosine 1-Phosphate Receptor 4 (S1P4). [Related pubchem assays: 1509 (Primary screen.), 1523 (Confirmation screen in triplicates.)]; assay type: functional
T3 sequence (O95977 whole entry): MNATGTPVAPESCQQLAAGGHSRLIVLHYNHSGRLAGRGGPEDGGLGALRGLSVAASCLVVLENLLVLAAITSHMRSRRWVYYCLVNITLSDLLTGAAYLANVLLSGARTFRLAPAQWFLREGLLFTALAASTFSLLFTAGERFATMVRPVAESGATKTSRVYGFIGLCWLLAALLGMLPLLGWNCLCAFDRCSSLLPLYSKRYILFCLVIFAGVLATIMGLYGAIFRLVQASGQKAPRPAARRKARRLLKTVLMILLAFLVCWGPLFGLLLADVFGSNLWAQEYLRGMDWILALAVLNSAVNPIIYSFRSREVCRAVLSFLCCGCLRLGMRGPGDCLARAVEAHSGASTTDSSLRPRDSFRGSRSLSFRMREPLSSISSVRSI

[18] = biological target: T4, RNA-binding protein pos-1 (Caenorhabditis elegans, UniProt G5EF15); assay: inhibitors of POS-1/mex-3 RNA binding, dose response, biochemical, fluorescence polarization (AID 1964);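 also: purified POS-1 fused to maltose binding protein made in E. coli; potency of compounds blocking POS-1 binding to fluorescent RNA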
T4 sequence (G5EF15 whole entry): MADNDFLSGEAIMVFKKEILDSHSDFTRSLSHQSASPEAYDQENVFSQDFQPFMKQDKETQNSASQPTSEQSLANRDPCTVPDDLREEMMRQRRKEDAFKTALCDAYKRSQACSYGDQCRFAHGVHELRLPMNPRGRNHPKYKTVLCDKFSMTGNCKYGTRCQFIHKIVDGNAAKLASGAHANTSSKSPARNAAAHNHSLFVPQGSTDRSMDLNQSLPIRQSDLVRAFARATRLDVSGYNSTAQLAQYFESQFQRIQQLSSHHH

Insulin-degrading enzyme = biological target: T5, Insulin-degrading enzyme (Homo sapiens, UniProt P14735); assay: Dose Response: Fluorescence polarization-based cell-based high throughput dose response assay for inhibitors of insulin-degrading enzyme (IDE). [Related pubchem assays: 434962 (Primary screen (IDE inhibitors in singlicate)), 449730 (Counterscreen (Cytotoxicity in triplicate)), 435028 (Confirmation (IDE inhibitors in triplicate)), 434984 (Summary …; assay type: functional
T5 sequence (P14735 whole entry): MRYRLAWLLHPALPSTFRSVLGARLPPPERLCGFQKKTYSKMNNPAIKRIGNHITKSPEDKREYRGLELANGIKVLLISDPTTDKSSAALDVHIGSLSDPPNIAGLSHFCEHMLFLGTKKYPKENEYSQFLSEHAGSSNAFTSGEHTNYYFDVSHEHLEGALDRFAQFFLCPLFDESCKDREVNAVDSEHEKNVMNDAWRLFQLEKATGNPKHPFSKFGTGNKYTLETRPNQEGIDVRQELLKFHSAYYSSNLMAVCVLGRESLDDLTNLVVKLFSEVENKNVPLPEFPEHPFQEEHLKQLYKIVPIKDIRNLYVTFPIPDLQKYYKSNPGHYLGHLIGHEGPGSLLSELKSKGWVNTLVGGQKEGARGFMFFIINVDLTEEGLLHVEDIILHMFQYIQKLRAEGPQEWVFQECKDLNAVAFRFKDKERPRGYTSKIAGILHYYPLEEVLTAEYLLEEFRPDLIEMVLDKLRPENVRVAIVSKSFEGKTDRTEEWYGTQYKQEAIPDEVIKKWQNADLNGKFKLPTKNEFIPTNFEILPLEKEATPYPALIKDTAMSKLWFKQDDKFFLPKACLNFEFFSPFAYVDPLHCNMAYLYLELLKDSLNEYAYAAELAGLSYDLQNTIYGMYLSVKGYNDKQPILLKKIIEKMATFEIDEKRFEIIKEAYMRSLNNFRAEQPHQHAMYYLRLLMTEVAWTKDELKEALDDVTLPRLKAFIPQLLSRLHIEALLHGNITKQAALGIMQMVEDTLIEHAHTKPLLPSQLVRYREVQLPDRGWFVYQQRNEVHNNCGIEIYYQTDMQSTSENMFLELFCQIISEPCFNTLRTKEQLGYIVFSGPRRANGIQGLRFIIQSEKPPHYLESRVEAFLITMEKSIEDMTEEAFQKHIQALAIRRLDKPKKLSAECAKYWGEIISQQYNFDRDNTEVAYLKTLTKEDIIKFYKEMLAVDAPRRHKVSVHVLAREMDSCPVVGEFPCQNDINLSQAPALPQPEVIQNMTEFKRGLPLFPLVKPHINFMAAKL

[19] = biological target: Sphingosine 1-phosphate receptor 1 (Homo sapiens, UniProt P21453); assay: Fluorescence-based counterscreen assay for S1P4 agonists: Cell-based dose response high throughput screening assay to identify agonists of the Sphingosine 1-Phosphate Receptor 1 (S1P1). [Related pubchem assays (depositor defined):AID1509, AID1523, AID1801, AID463107, AID463118, AID463119, AID463122, AID463123, AID463129, AID463225, AID504400, AID504460]; assay type: functional
CAAX prenyl protease 2 = CAAX prenyl protease 2 (Homo sapiens, UniProt Q9Y256); assay: human Rce1 protease inhibitors, dose response, biochemical, yeast membranes, quenched-peptide fluorescence, cherry-pick (AID 588849)
[20] = Counterscreen for IDE inhibitors: Luminescence-based cell-based high throughput dose response assay to identify compounds that are cytotoxic to HEK cells. [Related pubchem assays: 434962 (Primary screen (IDE inhibitors in singlicate)), 449730 (Counterscreen (Cytotoxicity in triplicate)), 435028 (Confirmation (IDE inhibitors in triplicate)) …; assay type: functional; details: HEK293
[21] = biological target: T6, Zinc finger protein mex-5 (Caenorhabditis elegans, UniProt Q9XUB2); assay: MEX-5/TCR-2 RNA interaction inhibitors, dose response, biochemical, C. elegans, fluorescence polarization (AID 1960)
T6 sequence (Q9XUB2 whole entry): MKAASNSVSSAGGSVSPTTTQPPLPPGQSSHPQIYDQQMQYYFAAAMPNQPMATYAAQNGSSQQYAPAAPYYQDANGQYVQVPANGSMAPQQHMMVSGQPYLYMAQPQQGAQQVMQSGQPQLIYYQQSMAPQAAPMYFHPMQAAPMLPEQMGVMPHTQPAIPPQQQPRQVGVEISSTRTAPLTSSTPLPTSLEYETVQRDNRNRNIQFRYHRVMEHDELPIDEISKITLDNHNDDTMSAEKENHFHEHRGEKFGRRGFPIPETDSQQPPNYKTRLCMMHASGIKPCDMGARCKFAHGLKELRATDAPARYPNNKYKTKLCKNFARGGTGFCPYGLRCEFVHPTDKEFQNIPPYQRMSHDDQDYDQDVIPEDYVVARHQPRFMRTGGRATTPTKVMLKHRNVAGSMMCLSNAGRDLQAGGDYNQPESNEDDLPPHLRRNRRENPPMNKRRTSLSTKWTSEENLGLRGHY

[22] = biological target: Lysine-specific demethylase 4C (Homo sapiens, UniProt Q9H3R0); assay: GASC-1 (JMJD2C) histone demethylase inhibitors, dose response, biochemical, DELFIA europium, cherry-picked samples (AID 488835); assay type: functional
[23] = biological target: Lysine-specific demethylase 4A (Homo sapiens, UniProt O75164); assay: JMJD2A histone demethylase inhibitors, dose response, selectivity assay for GASC-1 inhibitor project, biochemical, DELFIA europium, cherry-picked samples (AID 488840)
Lysine-specific demethylase 4A, sequence (O75164 whole entry): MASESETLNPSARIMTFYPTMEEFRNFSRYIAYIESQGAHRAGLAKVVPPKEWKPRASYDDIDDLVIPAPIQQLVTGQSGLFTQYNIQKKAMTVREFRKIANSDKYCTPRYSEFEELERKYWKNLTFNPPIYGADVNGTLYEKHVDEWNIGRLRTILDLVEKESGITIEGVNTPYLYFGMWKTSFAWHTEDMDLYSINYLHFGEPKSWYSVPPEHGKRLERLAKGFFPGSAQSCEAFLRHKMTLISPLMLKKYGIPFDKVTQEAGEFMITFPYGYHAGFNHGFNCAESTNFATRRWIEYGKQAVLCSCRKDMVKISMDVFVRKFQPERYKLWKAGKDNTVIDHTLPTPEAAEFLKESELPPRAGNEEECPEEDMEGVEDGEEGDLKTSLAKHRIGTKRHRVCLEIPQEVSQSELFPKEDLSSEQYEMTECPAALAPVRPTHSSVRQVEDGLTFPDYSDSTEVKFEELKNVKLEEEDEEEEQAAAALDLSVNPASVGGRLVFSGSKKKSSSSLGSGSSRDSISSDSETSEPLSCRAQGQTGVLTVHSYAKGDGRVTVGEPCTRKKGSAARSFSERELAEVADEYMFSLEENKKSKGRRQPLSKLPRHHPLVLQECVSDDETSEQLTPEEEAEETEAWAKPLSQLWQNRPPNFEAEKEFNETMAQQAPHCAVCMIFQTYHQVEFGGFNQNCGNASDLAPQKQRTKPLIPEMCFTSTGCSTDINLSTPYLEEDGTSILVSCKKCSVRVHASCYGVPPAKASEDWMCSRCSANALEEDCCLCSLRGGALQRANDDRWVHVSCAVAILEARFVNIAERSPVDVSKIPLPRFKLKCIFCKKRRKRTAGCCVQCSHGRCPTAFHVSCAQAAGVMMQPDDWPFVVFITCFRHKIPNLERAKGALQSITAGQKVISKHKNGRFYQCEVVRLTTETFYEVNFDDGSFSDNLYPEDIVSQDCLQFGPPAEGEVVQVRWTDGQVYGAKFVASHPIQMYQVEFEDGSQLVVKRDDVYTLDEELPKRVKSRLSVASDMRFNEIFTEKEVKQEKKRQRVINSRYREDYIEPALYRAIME

Sphingosine 1-phosphate receptor 1, sequence (P21453 whole entry): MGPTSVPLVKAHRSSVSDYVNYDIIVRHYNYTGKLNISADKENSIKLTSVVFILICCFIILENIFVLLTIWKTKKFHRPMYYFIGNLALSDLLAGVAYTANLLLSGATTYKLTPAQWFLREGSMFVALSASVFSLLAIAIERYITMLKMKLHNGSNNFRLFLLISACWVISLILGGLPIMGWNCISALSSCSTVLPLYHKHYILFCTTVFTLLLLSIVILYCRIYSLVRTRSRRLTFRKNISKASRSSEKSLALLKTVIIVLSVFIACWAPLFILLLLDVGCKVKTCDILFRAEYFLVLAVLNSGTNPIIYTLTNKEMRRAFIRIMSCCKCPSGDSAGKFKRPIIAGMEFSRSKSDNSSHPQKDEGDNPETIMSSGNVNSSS
SUMO E1/E2, sequence (Q9UBE0 whole entry): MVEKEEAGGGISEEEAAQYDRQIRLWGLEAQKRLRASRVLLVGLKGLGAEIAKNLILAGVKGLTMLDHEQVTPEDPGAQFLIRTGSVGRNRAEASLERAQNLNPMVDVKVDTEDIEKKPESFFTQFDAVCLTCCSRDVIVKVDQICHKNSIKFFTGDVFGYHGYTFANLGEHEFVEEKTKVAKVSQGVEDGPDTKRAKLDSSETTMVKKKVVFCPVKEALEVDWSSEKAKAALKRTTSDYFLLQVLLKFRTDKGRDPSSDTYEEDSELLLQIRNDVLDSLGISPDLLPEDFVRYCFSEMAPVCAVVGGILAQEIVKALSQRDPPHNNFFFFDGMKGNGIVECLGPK
SUMO E1/E2, sequence (Q9UBT2 whole entry): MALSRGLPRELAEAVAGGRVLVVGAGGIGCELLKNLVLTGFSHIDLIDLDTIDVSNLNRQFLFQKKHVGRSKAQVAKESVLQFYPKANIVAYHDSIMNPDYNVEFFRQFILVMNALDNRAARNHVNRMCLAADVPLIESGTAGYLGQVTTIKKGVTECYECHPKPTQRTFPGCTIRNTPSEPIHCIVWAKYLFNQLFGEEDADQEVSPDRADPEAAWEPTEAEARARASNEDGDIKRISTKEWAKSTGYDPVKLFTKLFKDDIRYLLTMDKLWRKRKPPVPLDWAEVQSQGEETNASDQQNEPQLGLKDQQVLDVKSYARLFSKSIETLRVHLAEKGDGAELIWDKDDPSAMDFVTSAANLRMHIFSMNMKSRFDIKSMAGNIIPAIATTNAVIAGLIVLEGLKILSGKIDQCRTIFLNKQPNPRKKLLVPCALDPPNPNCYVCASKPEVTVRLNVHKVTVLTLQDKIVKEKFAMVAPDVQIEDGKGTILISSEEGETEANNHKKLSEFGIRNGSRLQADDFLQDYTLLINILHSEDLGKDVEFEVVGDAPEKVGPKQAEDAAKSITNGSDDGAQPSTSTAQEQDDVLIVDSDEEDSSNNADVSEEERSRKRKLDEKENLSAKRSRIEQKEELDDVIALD
SUMO E1/E2, sequence (P63279 whole entry): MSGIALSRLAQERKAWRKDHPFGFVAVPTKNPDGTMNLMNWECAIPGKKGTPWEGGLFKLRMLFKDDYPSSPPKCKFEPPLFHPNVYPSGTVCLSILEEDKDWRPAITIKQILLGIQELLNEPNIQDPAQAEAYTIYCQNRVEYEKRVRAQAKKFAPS
Lysine-specific demethylase 4C, sequence (Q9H3R0 whole entry): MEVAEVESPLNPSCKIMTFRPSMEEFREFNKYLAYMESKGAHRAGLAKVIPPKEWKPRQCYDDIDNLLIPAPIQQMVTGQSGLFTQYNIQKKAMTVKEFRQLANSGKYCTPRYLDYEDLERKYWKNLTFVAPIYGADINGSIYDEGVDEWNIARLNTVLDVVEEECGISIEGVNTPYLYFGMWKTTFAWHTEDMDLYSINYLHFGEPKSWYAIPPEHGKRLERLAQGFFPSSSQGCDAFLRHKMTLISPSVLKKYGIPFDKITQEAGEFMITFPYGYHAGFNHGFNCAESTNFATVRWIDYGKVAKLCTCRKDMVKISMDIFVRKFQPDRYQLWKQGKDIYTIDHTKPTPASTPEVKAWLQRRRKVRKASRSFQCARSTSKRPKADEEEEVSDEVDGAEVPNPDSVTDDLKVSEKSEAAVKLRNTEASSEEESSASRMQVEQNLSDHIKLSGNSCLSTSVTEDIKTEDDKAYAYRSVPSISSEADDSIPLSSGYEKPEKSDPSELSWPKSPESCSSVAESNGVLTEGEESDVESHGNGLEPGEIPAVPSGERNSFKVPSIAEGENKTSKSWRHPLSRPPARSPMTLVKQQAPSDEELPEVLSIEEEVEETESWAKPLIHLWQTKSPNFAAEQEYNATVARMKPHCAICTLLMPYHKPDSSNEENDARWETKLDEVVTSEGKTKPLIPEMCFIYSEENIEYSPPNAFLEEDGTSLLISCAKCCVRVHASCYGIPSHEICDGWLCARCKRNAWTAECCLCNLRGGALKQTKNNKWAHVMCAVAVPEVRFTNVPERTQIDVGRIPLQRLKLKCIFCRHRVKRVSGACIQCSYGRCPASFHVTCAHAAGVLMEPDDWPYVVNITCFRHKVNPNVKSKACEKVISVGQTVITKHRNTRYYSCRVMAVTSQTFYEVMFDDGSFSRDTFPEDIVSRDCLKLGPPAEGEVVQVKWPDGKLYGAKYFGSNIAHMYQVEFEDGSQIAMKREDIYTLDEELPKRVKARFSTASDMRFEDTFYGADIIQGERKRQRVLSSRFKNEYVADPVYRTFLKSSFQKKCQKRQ
CAAX prenyl protease 2, sequence (Q9Y256 whole entry): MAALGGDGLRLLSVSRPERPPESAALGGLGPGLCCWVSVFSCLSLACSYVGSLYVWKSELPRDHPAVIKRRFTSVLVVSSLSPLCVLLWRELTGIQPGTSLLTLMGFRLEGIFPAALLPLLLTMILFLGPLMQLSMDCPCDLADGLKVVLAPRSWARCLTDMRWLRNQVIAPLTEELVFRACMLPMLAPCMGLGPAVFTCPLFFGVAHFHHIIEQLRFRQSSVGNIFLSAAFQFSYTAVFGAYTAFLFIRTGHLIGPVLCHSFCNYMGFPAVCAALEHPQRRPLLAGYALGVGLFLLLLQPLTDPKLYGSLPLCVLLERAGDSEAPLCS

SMILES: CC(=NOCc1nc2ccccc2c(=O)n1N=Cc1cc([N+](=O)[O-])ccc1O)c1ccccc1
- IC50 (SUMO E1/E2): 27 µM (active)

SMILES: COc1ccc(Nc2cc(C)nc(-n3nc(C)cc3C)n2)cc1
- EC50 [1]: 0.266 µM (active)
- EC50 (BJ [2]): 0.625 µM (active)
- EC50 (BJ [3]): 0.973 µM (active)
- EC50 (BJ [4]): 0.388 µM (inconclusive)
- EC50 [5]: 0.4 µM (active)
- EC50 [6]: 0.142 µM (active)
- IC50 [7]: 2.54 µM (active)
- CC50 [8]: 0.201 µM (active)
- IC50 [9]: > 80 µM (inactive)
- EC50 [10]: < 0.195 µM (active)
- CC50 [11]: 1.41 µM (active)
- CC50 [12]: > 20 µM (active)
- IC50 [13]: < 0.25 µM (active)
- IC50 (cells): 0.38 µM (active)

SMILES: Cc1ccc(N2CCN(CCCCN3C(=O)C4CCCN4C3=O)CC2)cc1 (configuration not stated)
- IC50 [14]: > 79.4 µM (inactive)
- IC50 [15]: > 79.4 µM (inactive)
- IC50 [16]: > 79.4 µM (inactive)

SMILES: COc1ccc(C2CC(c3cccs3)=NN2c2ccc(C=O)cc2)cc1 (configuration not stated)
- EC50 [17]: 8.63 µM (active)
- EC50 [18]: 18.3 µM (active)
- IC50 (Insulin-degrading enzyme): > 55.9 µM (not active)
- EC50 [19]: 12.5 µM (inactive)
- AC50 (CAAX prenyl protease 2): 8.53 µM (active)
- IC50 [20]: 41.2 µM (not active)
- EC50 [21]: 24.6 µM (active)

SMILES: COc1ccccc1NC(=O)COC(=O)c1nc(O)nc(O)c1N
- AC50 [22]: 6.73 µM (active)
- AC50 [23]: 8.34 µM (active)
